Legend:
[1] = tested on: C2C12-PHF20/YY1-promoter-GFP cell line; assay: HTS system: GFP (green luminescence) in PHF20-overexpressing myoblasts carrying YY1 promoter-GFP; assay type: cell-based, mouse; details: 10 μM compound, 24 h, after 250 ng/ml doxycycline 24 h; FDA-approved drug library of 1670 compounds
From the text: C2C12 myoblasts, which were stable cells in which PHF20 was overexpressed, were transformed with a plasmid coexisting with a YY1 promoter and GFP, which inhibited muscle differentiation, to prepare a stable cell line. The degree of GFP signal suppression was quantified and measured, and the degree of muscle differentiation was used as a quantitative measurement index (FIG. 1).
Specifically, the C2C12-PHF20/YY1-promoter-GFP cell line according to Example 1 was dispensed in a 96-well plate at 0.5×10^5, cultured for 24 hours, and cells in a 70% confluent state were treated with 250 ng/ml of doxycycline for 24 hours, and then treated with each compound at a final concentration of 10 μM.
For fluorescence intensity, C2C12-PHF20/YY1-promoter-GFP cells were dispensed at 4×10^5 in a 6-well culture plate and cultured for 24 hours. […] Thereafter, the degree of green luminescence was confirmed using GloMax microplate readers explorer (Promega, Madison, Wisconsin, USA).

[2] = Body weight in high-fat diet CTX-induced sarcopenia mouse model; assay type: in vivo; details: oral 5, 50, 500 mg/kg daily for 14 days
Experimental: (§1) In order to construct a high-fat diet CTX-induced sarcopenia mouse model, for 23-week-old C57BL/6J male mice subjected to 60% HFD for 19 weeks, cardiotoxin (LATOXAN, Portes-lés-Valence, France) was dissolved at 1 mg/ml in PBS to make a high-concentration stock solution. For application to mice, the stock solution was diluted again in PBS (Hyclone Dulbecco's Phaosphate Buffer saline Cat. SH30028.02) to a final concentration of 0.03 mg/ml and used, and intramuscularly injected into both quadriceps muscles of the mouse using a 1 ml syringe (24 G) to construct the high-fat diet CTX-induced sarcopenia mouse model.
(§2) Five groups of Group 1 of orally administering PBS to a high-fat diet mouse without injecting CTX, Group 2 of orally administering PBS to a high-fat diet mouse injected with CTX, Group 3 of orally administering sulfasalazine 5 mg/kg to the high-fat diet mouse injected with CTX, Group 4 of orally administering sulfasalazine 50 mg/kg to the high-fat diet mouse injected with CTX, and Group 5 of orally administering sulfasalazine 500 mg/kg to the high-fat diet mouse injected with CTX were divided and orally administered at 10 am every day for 14 days, and the body weights were measured and the results were shown in FIG. 13.

[3] = tested on: high-fat diet CTX-induced sarcopenia mouse model; assay: Grip strength in high-fat diet CTX-induced sarcopenia mouse model; assay type: in vivo; details: oral 5, 50, 500 mg/kg daily for 14 days; days 5, 9, 13; vs group injected with CTX
Experimental: as §1
as §2, with “13. […]” for “13.”

aging mouse model [4] = assay: Rota Rod balance ability in aging mouse model; assay type: in vivo; details: oral 5, 50, 500 mg/kg daily for 28 days; days 0, 7, 14, 21, 28
Experimental: (§3) In order to confirm the balance ability and the grip strength recovery effect of the Rota Rod according to a dose of sulfasalazine, 50-week-old C57BL/6J male mice were divided into Group 1 of PBS, Group 2 of sulfasalazine 5 mg/kg, Group 3 of sulfasalazine 50 mg/kg, and Group 4 of sulfasalazine 500 mg/kg, and orally administered every day at 10 am for 28 days, and then the body weight was measured.
(§4) The Rota Rod was measured on days 0, 7, 14, 21, and 28 with the animal group constructed in Group 2 under the conditions shown in Table 2 below, and the results were shown in FIG. 11 ((*) p≤0.05 vs G1). In the same animal group as the Rota Rod, the grip strength was measured on the 2 paws and 4 paws of the mouse on days 0, 9, 16, 23, and 28, and the results were shown in FIGS. 12A and 12B.

aging mouse model [5] = assay: Grip strength in aging mouse model; assay type: in vivo; details: oral 5, 50, 500 mg/kg daily for 28 days; vs control Group 1
Experimental: as §3, §4

[6] = Body weight in Velcro injured sarcopenia mouse model; assay type: in vivo; details: oral 5, 50, 500 mg/kg daily for 14 days
From the text: (§5) The left leg of an 8-week-old C57BL/6J male mouse was anesthetized with isoflurane, the entire leg was wound from the ankle with a 5 cm sports tape, and then wound and fixed with a Velcro with a width of 10 mm, and the Velcro condition was checked every day for 14 days (FIG. 16). Meanwhile, in the present disclosure, Velcro injury means that muscle damage is caused by such Velcro by winding the muscle with the Velcro so as not to move.
(§6) In order to confirm the amount of treadmill exercise according to the dose of sulfasalazine, Group 1 (n=5) of orally administering PBS to 8-week-old C57BL/6J male mice without injury, Group 2 (n=5) of orally administering PBS to mice with Velcro injury, Group 3 (n=5) of orally administering sulfasalazine 5 mg/kg to mice with Velcro injury, Group 4 (n=5) of orally administering sulfasalazine 50 mg/kg to mice with Velcro injury, and Group 5 (n=5) of orally administering sulfasalazine 500 mg/kg to mice with Velcro injury were divided and orally administered at 10 am every day for 14 days, and the body weights were measured and the results were illustrated in FIG. 18. […]
For a total of 14 days, the body weights of the mice were measured, and any change in body weight was confirmed.

[7] = Body weight in aging mouse model; assay type: in vivo; details: oral 5, 50, 500 mpk daily for 28 days, vs PBS
Experimental: (§7) In order to confirm the treadmill exercise capacity according to a dose of sulfasalazine, the mice divided in 3-1 above were orally administered at 10:30 every day for 28 days with Group 1 of PBS (Hyclone Dulbecco's Phaosphate Buffer saline Cat. SH30028.02), Group 2 of sulfasalazine (Sigma, Cat. Nr S0883. CAS Number 599-79-1) 5 mpk, Group 3 of sulfasalazine 50 mpk, and Group 4 of sulfasalazine 500 mpk. In order to reduce an error on treadmill exercise ability, the mice were starved for 3 hours before measuring the treadmill, and then the treadmill was performed 4 times at 7-day intervals (0 days, 7 days, 14 days, and […]) according to Table 1 below.
For a total of 28 days, the body weight of the mouse was measured, and any change in body weight was confirmed.

[8] = tested on: high-fat diet CTX-induced sarcopenia mouse model; assay: Rota Rod balance ability in high-fat diet CTX-induced sarcopenia mouse model; assay type: in vivo; details: oral 5, 50, 500 mg/kg daily for 14 days; days 4, 8, 12; vs group injected with CTX
Experimental: as §1
as §2, with “13. […]” for “13.”

[9] = tested on: Velcro injured sarcopenia mouse model; assay: Treadmill exercise capacity in Velcro injured sarcopenia mouse model; assay type: in vivo; details: oral 5, 50, 500 mg/kg; days 0, 3, 6, 10, 14; after day 6 of administration
From the text: as §5, §6

aging mouse model [10] = assay: Treadmill exercise capacity in aging mouse model; assay type: in vivo; details: oral 5, 50, 500 mpk daily for 28 days, vs PBS (G1)
Experimental: Treadmill adaptation was performed randomly for 3 days under conditions of grade 0, speed 15 (cm/sec), 10 minutes, electrical stimulation […] (defined as exhaustion when electrical stimulation occurred consecutive 4 times or more), and according to the treadmill result, mice with similar ability were distributed into each group and divided into 4 groups of 8 mice per group.
as §7

Structure (SMILES): Nc1ccc(S(=O)(=O)Nc2ncccn2)cc1 [sulfadiazine]
- degree of green luminescence (GFP inhibition) in screening [1]: effect of reducing green luminescence

Structure (SMILES): COc1cc(NS(=O)(=O)c2ccc(N)cc2)nc(OC)n1 [sulfadimethoxine]
- degree of green luminescence (GFP inhibition) in screening [1]: effect of reducing green luminescence

Structure (SMILES): COc1ncnc(NS(=O)(=O)c2ccc(N)cc2)c1OC [sulfadoxin]
- degree of green luminescence (GFP inhibition) in screening [1]: effect of reducing green luminescence

Structure (SMILES): N=C(N)NS(=O)(=O)c1ccc(N)cc1 [sulfaguanidine]
- degree of green luminescence (GFP inhibition) in screening [1]: effect of reducing green luminescence

Structure (SMILES): COc1cnc(NS(=O)(=O)c2ccc(N)cc2)nc1 [sulfameter]
- degree of green luminescence (GFP inhibition) in screening [1]: effect of reducing green luminescence

Structure (SMILES): Cc1nnc(NS(=O)(=O)c2ccc(N)cc2)s1 [sulfamethizole]
- degree of green luminescence (GFP inhibition) in screening [1]: effect of reducing green luminescence

Structure (SMILES): Nc1ccc(S(N)(=O)=O)cc1 [sulfanilamide]
- degree of green luminescence (GFP inhibition) in screening [1]: effect of reducing green luminescence

Structure (SMILES): Nc1ccc(S(=O)(=O)Nc2ccnn2-c2ccccc2)cc1 [sulfaphenazole]
- degree of green luminescence (GFP inhibition) in screening [1]: effect of reducing green luminescence

Structure (SMILES): Nc1ccc(S(=O)(=O)Nc2ccccn2)cc1 [sulfapyridine]
- degree of green luminescence (GFP inhibition) in screening [1]: effect of reducing green luminescence

Structure (SMILES): O=C(O)c1cc(/N=N/c2ccc(S(=O)(=O)Nc3ccccn3)cc2)ccc1O [sulfasalazine]
- body weight [2]: no difference in body weight was observed
- grip strength, 2 paws [3]: grip strength was improved with the increase in sulfasalazine dose
- grip strength, 4 paws [3]: grip strength was improved with the increase in sulfasalazine dose
- balance ability on the Rota Rod (aging mouse model [4]): recovery of balance ability of the mouse on the Rota Rod was improved
- grip strength, 2 paws (aging mouse model [5]): grip strength was improved with the increase in sulfasalazine dose
- grip strength, 4 paws (aging mouse model [5]): grip strength was improved with the increase in sulfasalazine dose
- body weight [6]: no difference in body weight was observed
- body weight [7]: no difference in body weight was observed
- degree of green luminescence (GFP inhibition) in screening [1]: effect of reducing green luminescence
- balance ability on the Rota Rod [8]: recovery of balance ability of the mouse on the Rota Rod was improved
- treadmill running distance [9]: treadmill running distances were increased as the administration period was increased
- treadmill running time [9]: treadmill running time was increased as the administration period was increased
- treadmill exercise capacity (latency to fall) (aging mouse model [10]): the higher the sulfasalazine dose, the higher the treadmill exercise capacity

Structure (SMILES): Nc1ccc(S(=O)(=O)Nc2nccs2)cc1 [sulfathiazole]
- degree of green luminescence (GFP inhibition) in screening [1]: effect of reducing green luminescence
